The test system of assay [1] is hypertensive and nonhypertensive stroke patients. The settings on record: cited from earlier work.
Assay [2] concerns hypertensive patients after cerebral ischemia, transitory ischemic attack or intracerebral hemorrhage. Briefly: Prospective, randomized clinical study (PROBE design) of eprosartan versus nitrendipine for prevention of subsequent strokes, interim report. It counts as in vivo, human. The settings on record: for incidence of subsequent cerebrovascular events / number of subsequent cerebrovascular events: interim report, 179 patients eprosartan group, 158 patients nitrendipine group, average observation period 18.4 / 18.3 months; for number of subsequent cerebrovascular events: start 600 mg eprosartan once daily or 10 mg nitrendipine q.d. From the text: A clinical study is currently being conducted on 1369 patients, investigating the suitability of antihypertensive agents of various pharmacological classes to reduce a patient's risk of suffering a subsequent stroke.
Of the 1369 patients (male/female), 691 patients received the AT1-receptor antagonist eprosartan (as eprosartan mesylate); 678 of the 1369 patients received the calcium antagonist nitrendipine.
The study is being conducted as a prospective, randomized, controlled and multicentric study and corresponds to the PROBE design (=prospective, randomized, open-blinded endpoint). The primary target criterion is the evaluation of the total mortality and the total number of cardiovascular and cerebrovascular events (strokes) in the sense of this invention.
The subsequent efficacy parameter is the change in mental abilities (evaluated on the basis of neurological findings, Barthel index and Rankin scale). In addition, the change in the average blood pressure over a period of time is evaluated in measurements performed on the patients sitting down in the office as well as in ambulatory 24-hour blood pressure measurements.
The study begins within 24 months after the occurrence of cerebral ischemia or an intracerebral hemorrhage in a patient. The patients are observed for up to four years. The essential prerequisite for including a patient in the study is hypertension requiring treatment and the condition following a cerebral ischemia, a transitory ischemic attack or an intracerebral hemorrhage within the last 24 months. Essential exclusion criteria include an occlusion or stenosis of greater than 70% of the internal carotid artery (ICA), manifest cardiac insufficiency (NYHY [sic; NYHA] class III-IV), age of patient greater than 85 years at the time of the cerebrovascular event, anticoagulant therapy for a patient because of cardiac arrhythmia, high-grade aortic or mitral valve stenosis, unstable angina pectoris or a known hypersensitivity to AT1-receptor antagonists or calcium antagonists of the dihyropyridine type or chemically related substances.
After inclusion in the study, the patients begin the randomized treatment phase with eprosartan or nitrendipine. Depending on the blood pressure readings and patient-specific criteria, treatment begins with 600 mg eprosartan once daily or 10 mg nitrendipine q.d. For long-term therapy, a diastolic blood pressure of less than 90 mmHg sitting down and a systolic blood pressure of less than 140 mmHg are the goals. For the 24-hour blood pressure measurements, a daily average of less than or equal to 135/85 mmHg is the goal. If additional antihypertensive therapy is necessary, conventional recognized criteria such as those recommended by the German Hypertension League are followed in the combination therapy. Combination therapy with ACE inhibitors, AT1-receptor antagonists or calcium antagonists should not be used.
Study end points (target criteria) are transmitted immediately to the central study office, where they are treated as open-blind results with respect to the medication and then forwarded to the End Point Committee. The committee performs the evaluation and classification of the findings with regard to a cardiovascular or cerebrovascular end point.
In an interim report on this study, the data on a total of 337 of the participating patients has been evaluated; 179 of these 337 patients received eprosartan (eprosartan group) and 158 of these 337 patients received nitrendipine (nitrendipine group). […]

For the compound `CCC[C@H](N[C@@H](C)C(=O)N1[C@H](C(=O)O)C[C@@H]2CCCC[C@@H]21)C(=O)OCC` [ACE monotherapy, perindopril], the “blood pressure of patients” value in assay [1] (hypertensive group) is recorded as “lowered to a comparable extent”. In addition, the “risk of suffering a subsequent stroke” value in assay [1] (subgroup of hypertensive patients, versus placebo patient group) was “did not differ from the corresponding risk in the placebo patient group”.
In the case of `CCCCc1ncc(/C=C(\Cc2cccs2)C(=O)O)n1Cc1ccc(C(=O)O)cc1.CS(=O)(=O)O` [eprosartan, (E)-α-[[2-butyl-1-[(4-carboxyphenyl)methyl]-1H-imidazol-5-yl]-methylene]-2-thiophenepropanoic acid monomethanesulfonate], in assay [2], the “incidence of subsequent cerebrovascular events” value worked out at 8.4% and the “number of subsequent cerebrovascular events” value is given as 15. Further, the “reduction in a patient's risk of having a subsequent stroke” value in assay [2] (monotherapy, conclusion from the interim clinical findings) is “significant reduction”.
With `CCOC(=O)C1=C(C)NC(C)=C(C(=O)OC)C1c1cccc([N+](=O)[O-])c1` (stereo not shown) [nitrendipine], in assay [2], the “incidence of subsequent cerebrovascular events” value is 13.9% and the “number of subsequent cerebrovascular events” value was found to be 22.
